Read-outs that look alike come from different tables or passages of the source.
Key:
[1] = molecular target: VIM-1 (Pseudomonas aeruginosa (strain ATCC 15692 / DSM 22644 / CIP 104116 / JCM 14847 / LMG 12228 / 1C / PRS 101 / PAO1), UniProt A0A0F7KYQ8); test: biochemical; conditions: CCF2-FA substrate, 30 pM enzyme, 2 hours at 25° C.
How it was run: (§1)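 Inhibitor was mixed with the metallo-β-lactamase and CCF2-FA. After 2 hours at 25° C, fluorescence of the coumarin–fluorescein cephalosporin substrate was read. IC50 was calculated with a 4-parameter fit.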

[2] = system: Klebsiella pneumoniae expressing VIM-1 (IHMA599644); assay type: cell-based; conditions: for Klebsiella pneumoniae expressing VIM-1 (IHMA599644) MITC95: with imipenem 1 μg/ml, 95% inhibition of bacterial growth
How it was run: (§2)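 Clinical isolates (E. coli NDM-1, S. marcescens IMP-1, K. pneumoniae VIM-1) were diluted 1:100 from saline suspension into 1.1×CAMHB and exposed to test compound with imipenem at 1 μg/ml. Plates were incubated at 35° C for 22 hours to 24 hours, and growth was read by absorbance.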

[3] = system: Serratia marcescens expressing IMP-1 (CL5741); assay type: cell-based; conditions: for Serratia marcescens expressing IMP-1 (CL5741) MITC95: with imipenem 1 μg/ml, 95% inhibition of bacterial growth
How it was run: as §2

[4] = system: Escherichia coli expressing NDM-1 (CLB30005, CLB30016); assay type: cell-based; conditions: with imipenem 1 μg/ml; for Escherichia coli expressing NDM-1 (CLB30016) MITC95: 95% inhibition of bacterial growth
How it was run: as §2

[5] = system: Pseudomonas aeruginosa MB9798 vs MB9799; conditions: ratio MITC95 PA_9798/MITC95 PA_9799
How it was run: (§3)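 Microbroth MIC tests in PAO1-background strains with fixed imipenem and/or ceftazidime, usually at the CLSI breakpoint, plus fixed class A/C β-lactamase inhibitor against AmpC. MBL inhibitor titrated; concentration restoring susceptibility recorded and compared as fold difference between efflux+ MB9798 and efflux− MB9799.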

[6] = system: Pseudomonas aeruginosa efflux− (MB9799), IMP-1; assay type: cell-based; conditions: concentration restoring susceptibility to imipenem at 2 μg/mL in the presence of a class A, C, D serine β-lactamase inhibitor closely related to relebactam
How it was run: as §3

[7] = molecular target: IMP-1 (Serratia marcescens, UniProt P52699); test: biochemical; assay type: biochemical; conditions: fluorescence assay, CCF2-FA substrate, 2 pM enzyme, 2 hours at 25° C.; read-out: IMP-1 IC50
Sequence of IMP-1 (P52699 whole entry, looked up, species assumed): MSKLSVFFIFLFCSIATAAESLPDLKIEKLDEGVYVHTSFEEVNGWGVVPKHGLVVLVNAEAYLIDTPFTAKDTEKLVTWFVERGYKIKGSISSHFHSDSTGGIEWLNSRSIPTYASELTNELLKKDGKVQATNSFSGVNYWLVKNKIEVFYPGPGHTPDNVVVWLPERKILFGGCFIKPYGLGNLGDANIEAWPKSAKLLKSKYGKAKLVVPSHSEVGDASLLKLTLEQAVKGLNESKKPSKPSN
How it was run: as §1

[8] = molecular target: NDM-1 (Klebsiella pneumoniae, UniProt C7C422); test: biochemical; assay type: biochemical; conditions: fluorescence assay, CCF2-FA substrate, 1 pM enzyme, 2 hours at 25° C.; read-out: NDM-1 IC50
Sequence of NDM-1 (C7C422 whole entry, looked up, species assumed): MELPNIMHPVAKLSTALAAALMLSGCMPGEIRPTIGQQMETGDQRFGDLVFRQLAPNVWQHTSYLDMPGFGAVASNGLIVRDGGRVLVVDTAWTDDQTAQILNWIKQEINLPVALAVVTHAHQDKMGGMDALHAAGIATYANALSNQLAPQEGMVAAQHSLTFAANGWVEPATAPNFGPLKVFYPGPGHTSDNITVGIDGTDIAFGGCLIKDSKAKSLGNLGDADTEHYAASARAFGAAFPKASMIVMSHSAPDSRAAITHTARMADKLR
How it was run: as §1

[9] = system: Pseudomonas aeruginosa efflux+ (MB9798), IMP-1; assay type: cell-based; conditions: concentration restoring susceptibility to imipenem at 2 μg/mL in the presence of a class A, C, D serine β-lactamase inhibitor closely related to relebactam
How it was run: as §3

[10] = fluorescence assay, read-out: VIM-1 IC50

| Compound | IC50 ([1]; VIM-1 IC50, fluorescence assay) | Klebsiella pneumoniae expressing VIM-1 (IHMA599644) MITC95 [2] | Serratia marcescens expressing IMP-1 (CL5741) MITC95 [3] | Escherichia coli expressing NDM-1 (CLB30016) MITC95 [4] | Efflux ratio [5] | P. aeruginosa expressing IMP-1, efflux − (MB9799) MITC95 [6] | IC50 [7] | IC50 [8] | P. aeruginosa expressing IMP-1, efflux + (MB9798) MITC95 [9] | IC50 [1, 10] | Klebsiella pneumoniae MITC95 ([2]; VIM-1 strain IHMA599644, with imipenem 1 μg/ml, 95% inhibition of growth) | Serratia marcescens MITC95 ([3]; IMP-1 strain CL5741, with imipenem 1 μg/ml, 95% inhibition of growth) | Escherichia coli MITC95 ([4]; NDM-1 strain, 95% inhibition of growth) |
| --- | --- | --- | --- | --- | --- | --- | --- | --- | --- | --- | --- | --- | --- |
| Nc1nc2c(-c3ccc(S(=O)(=O)NC4CCNCC4)c(S(N)(=O)=O)c3-c3nnn[nH]3)cccc2s1 [Example 32, 4-(2-amino-1,3-benzothiazol-4-yl)-N1-piperidin-4-yl-3-(1H-tetrazol-5-yl)benzene-1,2-disulfonamide] | 0.296 nM | 3.125 µM | 1.563 µM | 6.25 µM | 0.50 | 1.563 µM | 0.34 nM | 0.069 nM | 0.7813 µM | – | – | – | – |
| Cn1c(N)nc2c(-c3ccc(S(=O)(=O)N[C@@H]4CCNC4)c(S(N)(=O)=O)c3-c3nn[nH]n3)cccc21 [Example 164, 4-(2-amino-1-methyl-1H-benzo[d]imidazol-4-yl)-N^1-((R)-pyrrolidin-3-yl)-3-(2H-tetrazol-5-yl)benzene-1,2-disulfonamide] | – | 0.7813 µM | 0.7813 µM | 0.3906 µM | 1.00 | 0.7813 µM | 0.272 nM | 0.0378 nM | 0.7813 µM | 0.105 nM | – | – | – |
| NCCOCCNS(=O)(=O)c1ccc(-c2cccc3sc(N)nc23)c(-c2nnn[nH]2)c1S(N)(=O)=O [Example 203, 4-(2-aminobenzo[d]thiazol-4-yl)-N^1-(2-(2-aminoethoxy)ethyl)-3-(1H-tetrazol-5-yl)benzene-1,2-disulfonamide] | – | 3.125 µM | 1.563 µM | 3.125 µM | 0.50 | 1.563 µM | 0.199 nM | 0.05 nM | 0.7813 µM | 0.185 nM | – | – | – |
| Nc1ccc(-c2ccc(S(=O)(=O)NC[C@@]3(N)CCNC3)c(S(N)(=O)=O)c2-c2nn[nH]n2)cn1 [Example 369, (R)-4-(6-aminopyridin-3-yl)-N1-((3-aminopyrrolidin-3-yl)methyl)-3-(2H -tetrazol-5-yl)benzene-1,2-disulfonamide] | 0.302 nM | – | – | – | 1.00 | 1.563 µM | 0.508 nM | 0.276 nM | 1.563 µM | – | 3.125 µM | 0.7813 µM | 0.3906 µM |
| NC(=O)c1ccc(-c2ccc(S(=O)(=O)N[C@@H]3CCNC3)c(S(N)(=O)=O)c2-c2nnn[nH]2)cc1 [Example 137, (R)-4′-(N-(pyrrolidin-3-yl)sulfamoyl)-3′-sulfamoyl-2′-(1H-tetrazol-5-yl)-[1,1′-biphenyl]-4-carboxamide] | – | 3.125 µM | 3.125 µM | 3.125 µM | 1.00 | 0.7813 µM | 0.265 nM | 0.126 nM | 0.7813 µM | 0.157 nM | – | – | – |

Source: patent US10221163B2 (priority 2015, dated 2019)
